Km data for 1 molecule are collected here from paper PMC11568336, “Biochemical properties of immobilized horseradish peroxidase on ceramic and its application in removal of azo dye” (Scientific Reports, 2024).

The Km is the substrate concentration at which the rate is half of its maximum.

For the assay, the system named is T1, Horseradish peroxidase (HRP), soluble HRP.
T1 construct: gene PRXC1A; free (soluble) enzyme
Description: absorbance at […] nm, Lineweaver-Burk plot. Format: biochemical, Armoracia rusticana. As to conditions: soluble (free) enzyme; co-substrate H2O2 (8 mM in standard assay); 20 mM sodium acetate pH 6.0.

As for `COc1ccccc1O` [guaiacol], the Km came to 35.5 mM.
